Laboratory results reported in patent US20240167001A1, “THREE-DIMENSIONAL TUMOR MODEL OF GLIOBLASTOMA AND BRAIN METASTASIS, METHODS OF MANUFACTURING SAME AND USES THEREOF” (Ramot at Tel-Aviv University Ltd., priority 2021, published 2024).

Columns and labels:
T98G-F cells [1] = assay: Proliferation in fibrin 3D-bio-ink in the presence of SELPi (ImageJ, RLU); assay type: cell-based, human; conditions: 0.5 M [sic] KF38789, fibrin 3D-bio-ink; p=0.00003
Method: (§1) PD-GB4 iRFP-labeled were casted into 96 glass bottom well plates (Cellvis, California, USA) in a core tumor at a density of 1×10^7 cells/ml and surrounded with 1×10^6 cells/ml un-labeled hAstro. Experiments were done in a medium mixture at 1:1:1 ratio of DMEM, astrocytes medium and microglia medium. For invasion estimation of dormant versus fast-growing cell types, mCherry-labeled U-87MG and T98-G human GB cells (2×10^6 cells/ml) were plated in a glass bottom 96-well plates in the core of fibrin 3D-bio-ink. The surrounding fibrin 3D-bio-ink was an empty, clear fibrin 3D-bio-ink. Experiments were done in a medium mixture at 1:1:1:1:1 ratio of DMEM, astrocytes medium, microglia medium, pericytes medium and Endo-Gro medium. Cell invasion was monitored for 2-5 weeks using EVOS FL Auto cell imaging system and quantified by ImageJ software, presented here as relative light units (RLU). Cells invasion was normalized by comparing the size of the cell core at day 1 (polygon drawing shape) up to day 14. 2 weeks. Each group contained 6-12 samples and the experiments were repeated in three independent times. For the evaluation of proliferation in the presence of P-selectin inhibitor (SELPi), mCherry-labeled U-87MG-F and T98G-F cells generating fast-growing tumors or iRFP-labeled PD-GB4 cells (4×10^6 cells/ml) were seeded in a glass bottom 96-well plate in the core of fibrin 3D-bio-ink. The surrounding fibrin 3D-bio-ink was an empty, clear fibrin 3D-bio-ink. Cells were then treated with […] KF38789 which is a selective inhibitor of P-selectin (SELPi) which were chosen to serve as a small molecule drug. […] P-selectin (SELP) functions as a cell adhesion molecule on the surfaces of cells which binds carbohydrates (18). It is also involved in tumor cell binding and promote their invasion by supporting a permissive metastatic microenvironment and SELP is highly expressed in GB (28). […] Proliferation was quantified during time with ImageJ software by RLU. […]

U-87MG-F cells [2] = assay: as above; assay type: cell-based, human; conditions: 0.5 M [sic] KF38789, fibrin 3D-bio-ink; p=4×10^−6
Method: as §1

PD-GB4 cells [3] = assay: as above; assay type: cell-based, human; conditions: 0.5 M [sic] KF38789, fibrin 3D-bio-ink; p=0.0001
Method: as §1

P-selectin (SELP) = target: T1, P-selectin (SELP) (Homo sapiens, UniProt P16109); conditions: lymphocytes; read-out: IC50 for inhibition of SELP binding in lymphocytes; cited from earlier work
T1 sequence (P16109 42-830): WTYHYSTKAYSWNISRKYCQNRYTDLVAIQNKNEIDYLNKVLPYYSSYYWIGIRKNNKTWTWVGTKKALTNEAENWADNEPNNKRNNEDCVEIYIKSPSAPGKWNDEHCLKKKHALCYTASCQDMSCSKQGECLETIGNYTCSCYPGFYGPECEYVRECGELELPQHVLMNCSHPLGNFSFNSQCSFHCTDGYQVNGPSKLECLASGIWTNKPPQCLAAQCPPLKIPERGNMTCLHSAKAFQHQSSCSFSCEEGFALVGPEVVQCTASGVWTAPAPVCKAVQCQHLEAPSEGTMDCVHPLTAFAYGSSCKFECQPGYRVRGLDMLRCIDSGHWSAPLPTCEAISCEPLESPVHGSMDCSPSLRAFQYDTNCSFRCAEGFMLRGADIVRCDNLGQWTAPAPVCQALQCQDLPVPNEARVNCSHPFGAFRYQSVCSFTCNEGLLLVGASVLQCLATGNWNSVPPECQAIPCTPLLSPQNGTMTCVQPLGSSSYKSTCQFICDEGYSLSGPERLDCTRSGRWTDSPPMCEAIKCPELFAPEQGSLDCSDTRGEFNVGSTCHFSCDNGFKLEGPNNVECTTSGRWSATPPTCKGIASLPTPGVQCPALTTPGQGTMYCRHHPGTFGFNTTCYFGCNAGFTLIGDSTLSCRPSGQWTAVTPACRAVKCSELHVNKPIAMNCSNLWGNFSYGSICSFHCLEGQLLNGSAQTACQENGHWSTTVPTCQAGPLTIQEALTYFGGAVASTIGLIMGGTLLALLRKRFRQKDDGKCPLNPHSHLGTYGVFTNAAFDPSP

T98G-F cells [4] = assay: 2D proliferation assay with SELPi (IncuCyte); assay type: cell-based, human; conditions: 0.5 μM SELPi
Method: (§2) For growth curve evaluation, U-87MG and T98G human GB cells dormant and fast-growing tumor cells (29) (25,000 cells/well) were seeded onto 24-well plates in complete DMEM and incubated for 72 h (37° C.; 5% CO2). For the comparison of […] cell types growth curves in 2D culture, 10,000 cells/well were cultured in DMEM following a daily incubation with PrestoBlue® reagent for 4 h. For proliferation evaluation in the presence of SELPi, U-87MG and T98G human GB cells generating dormant and fast-growing tumors, or PD-GB4 cells (25,000 cells/well) were plated onto 24-well plate in complete DMEM and incubated for 24 h (37° C.; 5% CO2) to allow cell attachment. Cells were then treated with either 0.5 μM SELPi or with DMSO vehicle at corresponding % v/v of 0.2% v/v, prepared in medium mixture at 1:1:1:1:1 ratio of DMEM, astrocytes medium, microglia medium, pericytes medium and Endo-Gro medium, for 30 min. All wells were washed twice with PBS and incubated further with fresh medium mixture. Cell proliferation was monitored by IncuCyte® Zoom Live cell analysis system (Essen Bioscience), while the first images were taken right before the treatment. Each group was assayed in triplicates and the experiment was repeated in three independent times. Proliferation of cells was normalized to time 0 and presented as percent (%) of cell confluence.

U-87MG-F cells [5] = assay: 2D proliferation assay with SELPi (IncuCyte); assay type: cell-based, human; conditions: 0.5 μM SELPi
Method: as §2

PD-GB4 cells [6] = assay: 2D proliferation assay with SELPi (IncuCyte); assay type: cell-based, human; conditions: 0.5 μM SELPi
Method: as §2

patient-derived GB cells = assay: TMZ resistance evaluation, patient-derived GB cells in 2D culture; assay type: cell-based; conditions: Homo sapiens, 72 h, 3 patient-derived GB cells, 3 days, all three cell types, read-out: IC50 of TMZ, patient-derived cells grown in 2D culture
Method: The resistance of patient-derived cells to TMZ (LIXIN, China) was assessed in fibrin 3D-bio-ink and in 2D culture. Patient-derived cells were seeded in fibrin 3D-bio-ink at 1×10^7 cells/ml density to match resemble a very dens GB tissue, in different TMZ concentrations (2000 μM -0.01 μM) for 7 days. For the 2D culture TMZ resistance evaluation 20,000-40,000 cells/well were seeded in 24 well plate in fresh DMEM. We replaced the media to media with different TMZ concentrations (10 μM -0.01 μM) for 3 days. Then, the 3D-bio-ink samples were placed in 500 μl PrestoBlue in 24 well plate and incubated at 37° C. for 3 h.

With `COc1ccc(C2CC(c3c(O)cc(C)oc3=O)=NCCS2)c(OC)c1` (centres unmarked) [SELPi, KF38789] the “Inhibition of T98G fast-growing cells in fibrin 3D-bio-ink” value (T98G-F cells [1]) was “significant inhibition”, the “Inhibition of U-87MG fast-growing cells in fibrin 3D-bio-ink” value (U-87MG-F cells [2]) was “significant inhibition” and the “Inhibition of PD-GB4 cell proliferation in fibrin 3D-bio-ink” value (PD-GB4 cells [3]) was “significant inhibition”. The IC50 (P-selectin (SELP)) was 2000 nM, the “Effect on T98G-F cells in 2D culture” value (T98G-F cells [4]) was “did not affect” and the “Effect on U-87MG-F cells in 2D culture” value (U-87MG-F cells [5]) was “did not affect”. For the same molecule, the “Effect on proliferation of PD-GB4 in 2D culture” value (PD-GB4 cells [6]) was “did not affect”.

Work on `Cn1nnc2c(C(N)=O)ncn2c1=O` [TMZ, Temozolomide] yielded an IC50 (patient-derived GB cells) of about 4 nM.
